Measurements taken from ChEMBL document CHEMBL1201862, “PubChem BioAssay data set” (2004).
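48-hour exposure; five concentrations; linearly interpolated endpoints. GI50 marks 50% less growth.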 Active and inactive are the calls of the source. Rule as the data show it: active = GI50 up to about 1.1 µM and inactive = higher.

Key:
Assay in all cases: NCI-60 cell line screen, 48 h
OVCAR-5 = system: OVCAR-5
RPMI-8226 = system: RPMI-8226
MDA-MB-435 = system: MDA-MB-435
DU-145 = system: DU-145
Hs-578T = system: Hs-578T
OVCAR-4 = system: OVCAR-4
A498 = system: A498
SK-MEL-5 = system: SK-MEL-5
MOLT-4 = system: MOLT-4
A549 = system: A549
HCT-116 = system: HCT-116
SK-MEL-28 = system: SK-MEL-28
T47D = system: T47D
SNB-75 = system: SNB-75
TK-10 = system: TK-10
MDA-MB-231 = system: MDA-MB-231
MCF7 = system: MCF7
SF-539 = system: SF-539
SR = system: SR
HOP-92 = system: HOP-92

Measured: GI50

O=C(c1ccc(Cl)cc1)c1cnc(Nc2ccccc2Cl)s1
inactive: OVCAR-5 29.8 µM | RPMI-8226 > 100 µM | MDA-MB-435 32.6 µM | DU-145 20.3 µM | Hs-578T 32.4 µM | OVCAR-4 33.4 µM | A498 3.91 µM | SK-MEL-5 18.5 µM | MOLT-4 > 100 µM | A549 23.9 µM | HCT-116 21 µM | SK-MEL-28 16.6 µM | T47D 19.3 µM | SNB-75 19.6 µM | TK-10 18.5 µM | MDA-MB-231 41.4 µM | MCF7 31.5 µM | SF-539 27.5 µM | SR > 100 µM | HOP-92 27.2 µM

Cc1ccc(NCCN(C)C)c2c(=O)c3cc(O)ccc3sc12
inactive: OVCAR-5 15.3 µM | RPMI-8226 2.57 µM | MDA-MB-435 1.53 µM | DU-145 2.18 µM | OVCAR-4 7.21 µM | A498 6.79 µM | SK-MEL-5 2.86 µM | HCT-116 1.96 µM | SK-MEL-28 6.01 µM | T47D 7.91 µM | SNB-75 1.34 µM | TK-10 17.6 µM | MDA-MB-231 1.87 µM | SF-539 3.55 µM | HOP-92 2.38 µM
active: Hs-578T 0.933 µM | MOLT-4 0.0454 µM | A549 0.214 µM | MCF7 0.177 µM | SR 0.241 µM
